The source of these data is ChEMBL document CHEMBL5727726, “Pyridine sulfonamides” (2020).

Broadly, the IC50 is the concentration that inhibits the measured activity by half.

The assay in a line: Nav 1.7In Vitro PX Assay: HEK 293 cells stably transfected with human Nav1.7 were recorded in whole cell voltage clamp mode with the PatchXpress automated electrophysiology system (Molecular Devices, LLC, Sunnyvale, Calif.). Compound effects were measured on a partially inactivated state of the sodium channel. Cells were clamped to a holding potential yielding 20 to 50% inactivation. To elicit sodium current, channels were activated by pulsing to −10 mV for 20 msec. This voltage protocol was repeated at a rate of 0.1 Hz throughout the experiment. A single concentration of test compound was applied to cells for a duration of 3 minutes. Peak sodium current was measured at the end of the compound addition period to determine percent inhibition. Three to five cells were tested per concentration, and IC50 curves were fitted to percent inhibition as a function of concentration. As to conditions: HEK293.

The structures appear in SMILES notation.

Regarding `CNC(=O)N(c1ccc(S(=O)(=O)Nc2ccon2)cn1)c1cc(F)c(-c2cc(F)c(F)c(F)c2)cc1OC`, the IC50 was found to be 0.086 µM. The same measure for `CNC(=O)N(c1ccc(S(=O)(=O)Nc2ccon2)cn1)c1cc(Cl)c(-c2cc(F)cc(Cl)c2)cc1OC`: 0.028 µM.
